Test results published in BindingDB's records for doi:10.7270/Q2RB7317 (Nmmlsc, 2009).

Target: Ras-related C3 botulinum toxin substrate 1 (Mus musculus, UniProt P63001)
Assay: wildtype Rac1 GTP binding inhibitors, SAR follow-up, biochemical, additional analogs, multiplex bead flow cytometry (AID 2040)

| SMILES | Ki [nM] |
| --- | --- |
| O=C1Nc2c(F)cccc2C1=C1Nc2ccccc2C1=O | 3230 |
| O=C1NC(=S)N/C1=C1\C(=O)Nc2ccccc21 [(3Z)-3-(5-oxo-2-sulfanylideneimidazolidin-4-ylidene)-1H-indol-2-one] | 160 |
| O=C1NC(=O)/C(=C2/C(=O)Nc3ccccc32)N1 | 250 |
| O=C1Nc2ccc(Br)cc2C1=C1Nc2ccccc2C1=O | 1510 |
